What was measured:
Raw264.7 cells = experiment: Cell penetration ability at the cellular level (confocal microscopy); assay type: cell-based, mouse; details: Rhodamine B labeled peptide, 50, 100 and 200 μM, 1 hour
Procedure: Raw264.7 cells were distributed 3×10^4 each into a 4-well chamber and cultured in DMEM medium for 24 hours to stabilize the cells. After 24 hours, fluorescently labeled peptide was added to the medium at concentrations of 50, 100, and 200 μM. After 1 hour of peptide treatment, a degree of penetration of the peptide into cells was observed using a confocal scanning fluorescence microscope. Cell nuclei were stained using 4′,6-diamidino-2-phenylindole (DAPI, Thermo Fisher, D1306). DIC represents the case observed under a general microscope, Nuceli represents the nucleus of a cell, Peptide represents the degree of penetration of a peptide bound to rhodamine B, and MERGE represents an image that overlaps images of DIC, Nuclei, and the penetrated peptide.

[1] = system: Aggregatibacter actinomycetemcomitans; experiment: Inhibiting growth of periodontitis-causing bacteria (absorbance 600 nm); assay type: cell-based; details: Aa
Procedure: (§1) To evaluate the antibacterial activity, representative periodontitis-causing bacteria, Aggregatibacter actinomycetemcomitans and Porphyromonas gingivalis, were used. Each bacterium was inoculated into BHI (brain heart infusion) liquid medium and cultured in an anaerobic incubator at 37° C. and 120 rpm for 48 hours. After incubation, the peptide having the amino acid sequence of SEQ ID NO: 1 was treated at 100 μM, 250 μM, and 500 μM. As a positive control, minocycline (Merck, M9511) was inoculated at 500 ng/ml, and then 24 hours later, the absorbance was measured at 600 nm using a spectrophotometer to confirm a degree of bacterial growth.

Porphyromonas gingivalis = experiment: as above; assay type: cell-based; details: Pg
Procedure: as §1

[2] = system: artificial biofilm of Aggregatibacter actinomycetemcomitans and Porphyromonas gingivalis; experiment: Antibacterial activity in artificial biofilm on titanium disk (LIVE/DEAD staining); assay type: cell-based; details: 24 hours after inoculation; 50 μg/ml = 29 μM
Procedure: Periodontitis-causing bacteria exist in the oral cavity in a form of a biofilm, and thus in order to imitate this, an artificial biofilm was created on the surface of a titanium disk using A. a. (Aggregatibacter actinomycetemcomitans) and P. g. (Porphyromonas gingivalis) bacteria. Saliva and bacteria were mixed on a titanium disk, placed in BHI liquid medium, and cultured in an anaerobic incubator at 37° C. After 72 hours, 50 μg/ml (=29 μM), 100 μg/ml (=58 μM), 250 μg/ml (=144 μM), and 500 μg/ml (=288 μM) peptides and 1 μg/ml minocycline as a positive control were inoculated. 24 hours later after inoculation, a titanium disk with biofilm formed on the surface was obtained and the biofilm was stained using the Filmtracer LIVE/DEAD Biofilm Viability Kit (Thermo Fisher, L10316). Live bacteria are stained green, and dead bacteria are stained red. The titanium disk was observed using a confocal scanning fluorescence microscope.

phosphorylated IκBα = experiment: Western blot of plkBa in LPS-treated Raw264.7 cells; assay type: cell-based, mouse
Procedure: (§2) Raw264.7 cells were purchased from ATCC (American Type Culture Collection) and used in the experiment. Raw264.7 cells were cultured in a CO2 incubator at 37° C. supplied with 5% CO2 and 95% air using DMEM (Dulbecco's modified Eagle medium) medium supplemented with 10% FBS and 100 units/ml antibiotics (penicillin-streptomycin).
(§3) Raw264.7 cells were treated with 200 μM of the peptide having the amino acid sequence of SEQ ID NO: 1 for 30 minutes, and then treated with 1 μg/ml LPS (lipopolysaccharide, Merck, L3024). After 8 hours, the treated cells were collected, protease inhibitor cocktail and phosphatase inhibitor cocktail were added to Radioimmunoprecipitation assay buffer (RIPA buffer solution, Thermo Fisher, 89900), and the cells were treated to lyse the cells. After centrifuging the cell lysate and collecting the supernatant, the concentration of the cell lysate was measured using a bicinchoninic acid assay (BCA assay, Thermo Fisher, 23227), and RIPA buffer solution was added thereto to prepare the cell lysate to a final concentration of 5 mg/mL. Then, it was mixed with a buffer solution including 1M Tris-HCl (pH 6.8), 50% glycerol, and 10% SDS in a 4:1 ratio, and then sodium dodecyl sulfate-poly acrylamide gel electrophoresis (SDS-PAGE) was performed. […]

TNF-α = experiment: ELISA of TNF-α secreted by LPS-treated THP-1 macrophages; assay type: cell-based, human; details: 1 μg/ml LPS, 200 μM peptide, 24 hours, compared with 20 ng/ml IL-4
Procedure: (§4) Anti-inflammatory activity was verified using human monocyte cell lines (THP-1, ATCC, TIB-202). In the case of monocyte cell lines, PMA (Phorbol 12-myristate 13-acetate, Merck, P1585) was inoculated to differentiate monocytes into macrophages, and then treated with 1 μg/ml LPS (lipopolysaccharide, Merck, L3024), an inflammation inducer. […] The amount of pro-inflammatory cytokines IL-6 (R&D system, D6050) and TNF-α secreted by cells present in the medium was confirmed through ELISA (enzyme-linked immunosorbent assay).

phosphorylated NF-κB = experiment: Western blot of pNFkB in LPS-treated Raw264.7 cells; assay type: cell-based, mouse
Procedure: as §2, §3

IL-6 = experiment: ELISA of IL-6 secreted by LPS-treated THP-1 macrophages; assay type: cell-based, human; details: 1 μg/ml LPS, 200 μM peptide, 24 hours, compared with 20 ng/ml IL-4
Procedure: as §4

[3] = 200 μM peptide for 30 minutes, then 1 μg/ml LPS, 8 hours

Which results are given for “GKCSTRGRKSSRRKK (PEPTIDE HAVING ANTIBACTERIAL, …ON OR TISSUE …ON) [SEQ ID NO: 1, 15-mer peptide having antibacterial, anti-inflammatory and cell penetrating ability]”?
concentration dependence of fluorescence intensity in cells (Raw264.7 cells): as the concentration of peptide increased, the intensity of fluorescence also increased; fluorescence of rhodamine B in cells (Raw264.7 cells): fluorescence of rhodamine B (red) could be confirmed; survival rate of bacteria ([1]; at 250 μM or more, 24 hours): less than or equal to 50%; survival rate compared to minocycline ([1]; peptide 500 μM vs minocycline 500 ng/ml): higher than when treated with minocycline 500 ng/ml, but showed a similar effect; effect compared to minocycline (Porphyromonas gingivalis; all concentration ranges (100, 250, 500 μM) vs minocycline 500 ng/ml): better effect than minocycline; survival rate of bacteria (Porphyromonas gingivalis; at 100 μM or more, 24 hours): less than or equal to 50%; concentration at which killed bacteria (red) were observed in biofilm [2]: ≥ 50 µg/mL; expression of plkBa (phosphorylated IκBα; [3]): suppressed; effect on the expression of plkBa (phosphorylated IκBα; only the peptide, without LPS): no effect; TNF-α value (TNF-α): lowered to a similar level as when treated with IL-4; expression of pNFκB (phosphorylated NF-κB; [3]): suppressed; effect on the expression of pNFκB (phosphorylated NF-κB; only the peptide, without LPS): no effect; IL-6 value (IL-6): lowered to a similar level as when treated with IL-4

From US20250115642A1, “PEPTIDE HAVING ANTIBACTERIAL, ANTI-INFLAMMATORY OR TISSUE REGENERATION ABILITY AND USE THEREOF” (priority 2022, published 2025)
